{"source": "paper PMC10547880", "about": "“Synthesis and biological evaluation of novel 1,2,3-triazole hybrids of cabotegravir: identification of potent antitumor activity against lung cancer” (Frontiers in Pharmacology, 2023)", "type_in_all_cases": "cell-based, Human", "key": {"[1]": {"system": "H1299 cells", "test": "Live/dead cell staining (Calcein-AM/PI), H1299", "settings": "H1299, 5, 10, 20 μM, 24 h", "description": "Cells with a density of 5 × 10^3 cells per well were seeded in a 96-well plate. After overnight incubation, cells were treated with different concentrations (0, 5 μM, 10 μM, 20 μM) of compounds for 24 h. The LIVE/DEAD Assay Kit was used to dye cells, and cells were observed and photographed under a fluorescent microscope. Live and Dead cell numbers were counted and the ratio of dead to living cells were calculated. Values were expressed as Mean ± SEM, p < 0.05 was considered statistically significant. Data were performed using Graph Prim 7.0.\n(§1) To assess the anti-proliferative effects of compound 5i, live/dead cell staining was performed using Calcein Acetoxymethyl Ester (Calcein-AM) and Propidium Iodide (PI) dyes ([Xie et al., 2023]). Calcein-AM highlights live cells through green fluorescence emission, while PI identifies dead cells with damaged membrane integrity, producing red fluorescence. H460 and H1299 cells were treated with different concentrations (0, 5, 10 and 20 μM) of compound 5i for 24 h. After 24 h treatment, cells were stained with Calcein-AM and PI, diluted in cultured medium, and incubated for an hour in dark. Then the fluorescence was detected and photographed using a fluorescent microscope. […] In addition, we also performed plate clone formation assay ([Xu et al., 2018]) to further investigate the anti-proliferation ability of compound 5i. […]"}, "[2]": {"system": "H1299 cells", "test": "Plate clone formation assay, H1299", "settings": "H1299, 2-32 μM", "description": "Cells with the density of 500 cells per well were seeded in a 6-well plate. Different concentrations (0, 2 μM, 4 μM, 8 μM, 16 μM and 32 μM) of compounds were added to cells and maintained for a 72- hour duration. And cells were cultured until the monoclonal appeared. Afterward, cells were fixed with 4% paraformaldehyde and stained by Giemsa dye. The plate clone numbers were photographed and counted using a microscope. Values were expressed as Mean ± SEM, p < 0.05 was considered statistically significant. Data were performed using Graph Prim 7.0.\nas §1"}, "[3]": {"system": "H460 cells", "test": "Apoptosis assay, Annexin V-FITC/PI flow cytometry, H460", "settings": "H460, 2, 4 and 8 μM, 72 h", "description": "Cells with a density of 3 × 10^5 cells per well were seeded in 6-well plates. After overnight adhesion, cells were treated with different concentrations of compounds for 72 h. Cells were harvested and stained with Annexin V-FITC and propidium iodide. Apoptotic ratio was quantified using the flow cytometry (BD Biosciences) and analyzed using the FlowJo software v10. Values were expressed as Mean ± SD, p < 0.05 was considered statistically significant. Data were performed using Graph Prim 7.0.\nApoptosis is a programmed-controlled process of cell self-destruction, and increased cell apoptosis can lead to cell death ([Wang et al., 2023]). To explore the preliminary molecular mechanisms of the synthesized compounds action, the apoptotic activity of compound 5i was evaluated by comparing the percentage of apoptotic cells with untreated cells using flow cytometry after staining with Annexin V-FITC and PI ([Chen et al., 2022a]). This assay facilitates the detection of necrotic cells (Q1, AV-/PI+), late apoptotic cells (Q2, AV+/PI+), early apoptotic cells (Q3, AV+/PI-), and live cells (Q4, AV-/PI-). H460 and H1299 cells were treated with different doses of compound 5i for 72h, and cells were collected, stained, and analyzed. The proportion of early and late apoptotic cells was added and their ratio relative to the total cells was calculated."}, "[4]": {"system": "H460 cells", "test": "Cellular ROS measurement (DCFH-DA), H460", "settings": "H460, 5, 10 or 20 μM, 24 h", "description": "Cells with a density of 5 × 10^3 cells/well were cultured in a 96-well plate. The cells were treated with different concentrations (0, 5, 10, 20 μM) of compounds for 24 h. Then the medium was replaced with 10 μM DCFH-DA dissolved in culture medium and incubated for 30min at 37°C in dark. The fluorescent cells were observed and photographed using a fluorescent microscope.\nReactive oxygen species (ROS) levels were determined quantitatively using the probe 2′-7′-dichlorodihydrofluorescin diacetate (H2DCFDA) ([Kim and Xue, 2020]). Under normal condition, ROS participated in mitochondrial electron transport, signal transduction, gene expression, and enzyme reactions. But excess or deficiency of ROS levels can result in the development of diseases including cancers, diabetes, atherosclerosis, neurodegenerative diseases and others ([Wang et al., 2023]). ROS induction is associated with mitochondrial membrane damage, cell apoptosis, and ultimately cell death ([Dixon and Stockwell, 2014]). To evaluate the effect of compound 5i on ROS generation, H460 cells were treated with 5 μM, 10 μM or 20 μM of compound 5i for 24 h. […] DCFH-DA has no fluorescence and it can pass through cell membrane freely. […] This phenomenon can be attributed to the reduction in the number of live cells; however, the observed fluorescence appeared more intense (Figure 5)."}}}
{"smiles": "COc1c2n(cc(C(=O)Nc3cccc(-c4cn(-c5ccccc5OC(F)(F)F)nn4)c3)c1=O)CC1OCC(C)N1C2=O", "note": "(stereo not shown) [Compound 5i]", "values": [{"measurement": "live and dead cell numbers", "setting": "[1]", "value": "decrease in live cell numbers alongside a substantial rise in dead cells"}, {"measurement": "number of cell clones", "setting": "[2]", "value": "reduction in the number of cell clones"}, {"measurement": "apoptotic cells (early + late)", "setting": "[3]", "value": "significant increase in apoptotic cells"}, {"measurement": "ROS generation", "setting": "[4]", "value": "significant augmentation in ROS generation"}]}
